Calls of active or inactive are those of the source. Rule as the data show it, for most assays here: actives have a measured Kd and inactives only a lower limit.
Columns and labels:
[1] = target: MAP/microtubule affinity-regulating kinase 3 (Homo sapiens, UniProt P27448)
[2] = target: Dual specificity protein kinase CLK2 (Homo sapiens, UniProt P49760)
[3] = target: T1, dCTP pyrophosphatase 1 (Homo sapiens, UniProt Q9H773)
T1 sequence (Q9H773 whole entry): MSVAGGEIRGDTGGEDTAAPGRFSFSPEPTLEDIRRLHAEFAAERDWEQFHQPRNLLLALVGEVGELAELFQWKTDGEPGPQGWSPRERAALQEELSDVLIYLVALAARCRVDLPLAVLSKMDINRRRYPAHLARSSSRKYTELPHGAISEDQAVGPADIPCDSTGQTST

[4] = target: Calcium/calmodulin-dependent protein kinase type II subunit delta (Homo sapiens, UniProt Q13557)
[5] = target: T2, Serine/threonine-protein kinase NLK (Homo sapiens, UniProt Q9UBE8)
T2 sequence (Q9UBE8 whole entry): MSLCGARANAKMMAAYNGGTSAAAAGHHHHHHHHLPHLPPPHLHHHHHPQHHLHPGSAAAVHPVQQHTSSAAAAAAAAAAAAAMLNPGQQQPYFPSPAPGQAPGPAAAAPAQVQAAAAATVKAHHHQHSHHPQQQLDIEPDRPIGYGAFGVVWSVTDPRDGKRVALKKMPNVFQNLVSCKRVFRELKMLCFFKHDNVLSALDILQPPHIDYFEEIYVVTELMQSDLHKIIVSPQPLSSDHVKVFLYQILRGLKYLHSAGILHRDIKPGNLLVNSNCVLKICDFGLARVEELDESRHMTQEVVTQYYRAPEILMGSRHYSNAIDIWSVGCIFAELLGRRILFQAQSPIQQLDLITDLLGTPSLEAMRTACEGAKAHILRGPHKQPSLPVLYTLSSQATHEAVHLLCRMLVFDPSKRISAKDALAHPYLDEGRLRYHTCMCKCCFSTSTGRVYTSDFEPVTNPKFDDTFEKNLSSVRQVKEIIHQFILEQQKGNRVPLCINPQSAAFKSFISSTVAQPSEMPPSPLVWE

[6] = target: T3, Serine/threonine-protein kinase STK11 (Homo sapiens, UniProt Q15831)
T3 sequence (Q15831 whole entry): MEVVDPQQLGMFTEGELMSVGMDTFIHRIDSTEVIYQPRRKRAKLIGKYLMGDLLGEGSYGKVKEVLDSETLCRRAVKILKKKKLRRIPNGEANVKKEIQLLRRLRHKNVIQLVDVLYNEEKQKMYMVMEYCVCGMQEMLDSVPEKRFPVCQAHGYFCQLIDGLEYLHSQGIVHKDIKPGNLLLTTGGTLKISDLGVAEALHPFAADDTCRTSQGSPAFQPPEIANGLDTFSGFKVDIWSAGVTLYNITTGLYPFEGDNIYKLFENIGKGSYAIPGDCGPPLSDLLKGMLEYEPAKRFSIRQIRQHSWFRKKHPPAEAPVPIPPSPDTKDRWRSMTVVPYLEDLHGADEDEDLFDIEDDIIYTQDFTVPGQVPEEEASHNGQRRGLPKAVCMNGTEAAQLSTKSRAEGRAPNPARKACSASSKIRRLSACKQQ

[7] = target: Cyclin-dependent kinase 2 (Homo sapiens, UniProt P24941)
[8] = target: T4, Tyrosine-protein kinase Tec (Homo sapiens, UniProt P42680)
T4 sequence (P42680 whole entry): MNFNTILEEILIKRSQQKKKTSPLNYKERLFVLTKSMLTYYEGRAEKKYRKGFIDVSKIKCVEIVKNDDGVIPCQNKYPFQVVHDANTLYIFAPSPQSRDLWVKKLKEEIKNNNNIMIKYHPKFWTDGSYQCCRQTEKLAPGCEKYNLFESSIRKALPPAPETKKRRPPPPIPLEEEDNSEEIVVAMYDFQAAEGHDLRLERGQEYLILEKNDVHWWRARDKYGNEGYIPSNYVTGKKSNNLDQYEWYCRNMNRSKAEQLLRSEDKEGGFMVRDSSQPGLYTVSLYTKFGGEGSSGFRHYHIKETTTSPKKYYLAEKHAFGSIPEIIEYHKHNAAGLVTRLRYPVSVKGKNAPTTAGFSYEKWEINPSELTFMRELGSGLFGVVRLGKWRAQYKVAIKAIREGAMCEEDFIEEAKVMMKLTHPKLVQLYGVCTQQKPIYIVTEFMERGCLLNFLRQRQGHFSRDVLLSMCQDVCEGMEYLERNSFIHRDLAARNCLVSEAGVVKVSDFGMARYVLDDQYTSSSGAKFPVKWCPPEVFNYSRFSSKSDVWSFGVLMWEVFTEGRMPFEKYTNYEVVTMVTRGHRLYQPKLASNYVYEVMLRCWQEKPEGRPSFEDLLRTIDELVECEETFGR

[9] = target: Glycogen synthase kinase-3 alpha (Homo sapiens, UniProt P49840)
[10] = target: T5, Beta-adrenergic receptor kinase 1 (Homo sapiens, UniProt P25098)
T5 sequence (P25098 whole entry): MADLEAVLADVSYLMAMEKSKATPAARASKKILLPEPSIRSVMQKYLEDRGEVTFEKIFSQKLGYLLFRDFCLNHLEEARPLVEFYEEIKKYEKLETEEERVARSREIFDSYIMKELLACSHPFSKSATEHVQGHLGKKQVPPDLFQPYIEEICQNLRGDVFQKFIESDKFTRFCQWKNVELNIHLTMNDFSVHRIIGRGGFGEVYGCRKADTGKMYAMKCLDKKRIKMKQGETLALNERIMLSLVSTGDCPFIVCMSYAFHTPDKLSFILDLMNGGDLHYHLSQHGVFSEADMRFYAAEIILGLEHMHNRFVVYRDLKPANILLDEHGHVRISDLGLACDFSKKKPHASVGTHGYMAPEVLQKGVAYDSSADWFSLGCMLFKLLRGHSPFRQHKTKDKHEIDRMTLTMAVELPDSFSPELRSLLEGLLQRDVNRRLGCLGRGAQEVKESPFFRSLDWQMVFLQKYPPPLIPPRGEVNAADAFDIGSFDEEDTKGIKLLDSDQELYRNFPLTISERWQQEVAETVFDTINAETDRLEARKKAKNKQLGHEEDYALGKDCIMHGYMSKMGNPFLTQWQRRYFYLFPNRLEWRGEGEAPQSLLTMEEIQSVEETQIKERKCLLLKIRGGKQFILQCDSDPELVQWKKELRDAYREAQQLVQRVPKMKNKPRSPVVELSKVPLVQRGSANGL
Also: in the data inactive means no Kd found up to 30 µM.

Chain of Dual specificity protein kinase CLK2 (P49760 whole entry): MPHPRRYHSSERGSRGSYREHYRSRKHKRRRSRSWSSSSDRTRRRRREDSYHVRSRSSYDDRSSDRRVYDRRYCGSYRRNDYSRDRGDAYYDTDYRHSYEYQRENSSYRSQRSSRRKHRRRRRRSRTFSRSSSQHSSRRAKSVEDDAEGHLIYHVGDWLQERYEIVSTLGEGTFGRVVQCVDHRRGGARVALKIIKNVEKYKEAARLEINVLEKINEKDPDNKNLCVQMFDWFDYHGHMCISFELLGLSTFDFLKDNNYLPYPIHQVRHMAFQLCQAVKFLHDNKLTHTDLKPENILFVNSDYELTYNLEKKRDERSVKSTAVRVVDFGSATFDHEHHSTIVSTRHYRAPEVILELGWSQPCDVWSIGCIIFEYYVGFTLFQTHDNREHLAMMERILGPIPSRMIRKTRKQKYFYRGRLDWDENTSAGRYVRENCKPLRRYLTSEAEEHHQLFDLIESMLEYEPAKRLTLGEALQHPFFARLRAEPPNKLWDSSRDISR
Chain of MAP/microtubule affinity-regulating kinase 3 (P27448 whole entry): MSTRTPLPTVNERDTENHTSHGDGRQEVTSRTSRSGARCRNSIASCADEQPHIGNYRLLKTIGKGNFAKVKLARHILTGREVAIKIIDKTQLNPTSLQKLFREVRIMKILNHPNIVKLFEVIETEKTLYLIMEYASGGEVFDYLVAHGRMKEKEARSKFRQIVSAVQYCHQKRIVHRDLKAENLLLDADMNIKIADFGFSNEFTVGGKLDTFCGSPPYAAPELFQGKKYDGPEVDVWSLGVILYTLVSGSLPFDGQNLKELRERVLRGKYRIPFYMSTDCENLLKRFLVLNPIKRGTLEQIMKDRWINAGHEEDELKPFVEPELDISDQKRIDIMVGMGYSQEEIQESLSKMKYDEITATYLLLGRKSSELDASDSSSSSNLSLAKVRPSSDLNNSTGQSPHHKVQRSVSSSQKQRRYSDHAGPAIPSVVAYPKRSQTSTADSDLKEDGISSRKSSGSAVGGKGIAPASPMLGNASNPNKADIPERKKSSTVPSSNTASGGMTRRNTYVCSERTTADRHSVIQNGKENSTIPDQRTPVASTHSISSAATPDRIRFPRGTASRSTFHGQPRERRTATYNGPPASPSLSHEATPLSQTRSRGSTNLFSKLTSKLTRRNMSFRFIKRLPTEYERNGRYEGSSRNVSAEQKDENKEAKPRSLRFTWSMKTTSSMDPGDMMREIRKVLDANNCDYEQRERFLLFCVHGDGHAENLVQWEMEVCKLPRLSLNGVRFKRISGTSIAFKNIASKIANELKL
Chain of Glycogen synthase kinase-3 alpha (P49840 whole entry): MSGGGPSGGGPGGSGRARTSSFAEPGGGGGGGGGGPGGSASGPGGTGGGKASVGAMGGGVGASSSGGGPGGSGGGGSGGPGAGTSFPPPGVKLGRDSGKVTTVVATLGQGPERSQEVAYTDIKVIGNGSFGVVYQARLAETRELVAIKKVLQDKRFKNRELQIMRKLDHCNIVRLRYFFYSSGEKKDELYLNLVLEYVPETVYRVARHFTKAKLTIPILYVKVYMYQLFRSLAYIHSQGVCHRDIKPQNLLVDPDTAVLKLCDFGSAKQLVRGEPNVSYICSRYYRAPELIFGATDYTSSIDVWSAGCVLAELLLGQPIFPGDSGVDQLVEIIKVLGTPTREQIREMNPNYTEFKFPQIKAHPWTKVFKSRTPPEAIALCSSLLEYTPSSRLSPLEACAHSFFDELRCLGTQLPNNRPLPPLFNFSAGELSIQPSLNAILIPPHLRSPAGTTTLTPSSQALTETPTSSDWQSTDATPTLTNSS
Chain of Calcium/calmodulin-dependent protein kinase type II subunit delta (Q13557 whole entry): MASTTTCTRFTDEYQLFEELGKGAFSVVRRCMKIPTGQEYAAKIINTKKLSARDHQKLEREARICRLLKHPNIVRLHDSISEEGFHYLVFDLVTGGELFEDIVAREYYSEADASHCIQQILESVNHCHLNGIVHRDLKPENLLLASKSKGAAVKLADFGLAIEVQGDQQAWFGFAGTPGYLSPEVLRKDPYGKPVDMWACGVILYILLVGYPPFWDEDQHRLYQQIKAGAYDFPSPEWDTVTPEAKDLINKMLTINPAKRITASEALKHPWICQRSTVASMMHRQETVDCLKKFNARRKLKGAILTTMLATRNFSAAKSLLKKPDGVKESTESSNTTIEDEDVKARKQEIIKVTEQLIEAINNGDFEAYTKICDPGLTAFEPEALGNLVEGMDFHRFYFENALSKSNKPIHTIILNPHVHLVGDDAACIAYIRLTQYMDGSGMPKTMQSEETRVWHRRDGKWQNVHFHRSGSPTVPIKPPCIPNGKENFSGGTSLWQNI

| SMILES | Kd [1] | Kd [2] | Kd [3] | Kd [4] | Kd [5] | Kd [6] | Kd [7] | Kd [8] | Kd [9] | Kd [10] |
| --- | --- | --- | --- | --- | --- | --- | --- | --- | --- | --- |
| O=c1[nH]ccc2cc(OC3CCNCC3)ccc12 [SAR-407899 FREE BASE] | > 30 µM (inactive) | > 30 µM (inactive) | > 30 µM (inactive) | > 30 µM (inactive) | > 30 µM (inactive) | > 30 µM (inactive) | > 30 µM (inactive) | > 30 µM (inactive) | > 30 µM (inactive) | > 30 µM (inactive) |
| CN1CCN(CCOc2cc(OC3CCOCC3)c3c(Nc4c(Cl)ccc5c4OCO5)ncnc3c2)CC1 [SARACATINIB] | > 30 µM (inactive) | > 30 µM (inactive) | > 30 µM (inactive) | > 30 µM (inactive) | > 30 µM (inactive) | > 30 µM (inactive) | > 30 µM (inactive) | > 30 µM (inactive) | > 30 µM (inactive) | > 30 µM (inactive) |
| Cn1cc(-c2cnn3c(N)c(Br)c([C@@H]4CCCNC4)nc23)cn1 [SCH-900776] | 1.93 µM (active) | > 30 µM (inactive) | > 30 µM (inactive) | > 30 µM (inactive) | > 30 µM (inactive) | > 30 µM (inactive) | > 30 µM (inactive) | > 30 µM (inactive) | > 30 µM (inactive) | > 30 µM (inactive) |
| CO[C@H]1C[C@@H]2CC[C@@H](C)[C@@](O)(O2)C(=O)C(=O)N2CCCC[C@H]2C(=O)O[C@H]([C@H](C)C[C@@H]2CC[C@@H](O)[C@H](OC)C2)CC(=O)[C@H](C)/C=C(\C)[C@@H](O)[C@@H](OC)C(=O)[C@H](C)C[C@H](C)/C=C/C=C/C=C/1C [SIROLIMUS] | > 30 µM (inactive) | > 30 µM (inactive) | > 30 µM (inactive) | > 30 µM (inactive) | > 30 µM (inactive) | > 30 µM (inactive) | > 30 µM (inactive) | > 30 µM (inactive) | > 30 µM (inactive) | > 30 µM (inactive) |
| CO[C@H]1C[C@@H]2CC[C@@H](C)[C@@](O)(O2)C(=O)C(=O)N2CCCC[C@H]2C(=O)O[C@H]([C@H](C)C[C@@H]2CC[C@@H](OC(=O)C(C)(CO)CO)[C@H](OC)C2)CC(=O)[C@H](C)/C=C(\C)[C@@H](O)[C@@H](OC)C(=O)[C@H](C)C[C@H](C)/C=C/C=C/C=C/1C [TEMSIROLIMUS] | > 30 µM (inactive) | > 30 µM (inactive) | > 30 µM (inactive) | > 30 µM (inactive) | > 30 µM (inactive) | > 30 µM (inactive) | > 30 µM (inactive) | > 30 µM (inactive) | > 30 µM (inactive) | > 30 µM (inactive) |
| O=C(Cc1ccc(-c2ccc(OCCN3CCOCC3)cc2)cn1)NCc1ccccc1 [TIRBANIBULIN] | > 30 µM (inactive) | > 30 µM (inactive) | > 30 µM (inactive) | > 30 µM (inactive) | > 30 µM (inactive) | > 30 µM (inactive) | > 30 µM (inactive) | > 30 µM (inactive) | > 30 µM (inactive) | > 30 µM (inactive) |
| O=C1NC(=O)[C@@H](c2cn3c4c(cccc24)CCC3)[C@@H]1c1c[nH]c2ccccc12 [TIVANTINIB] | > 30 µM (inactive) | > 30 µM (inactive) | > 30 µM (inactive) | > 30 µM (inactive) | > 30 µM (inactive) | > 30 µM (inactive) | > 30 µM (inactive) | > 30 µM (inactive) | > 30 µM (inactive) | > 30 µM (inactive) |
| C[C@@H](NC(=O)c1ncnc(N)c1Cl)c1ncc(C(=O)Nc2cc(C(F)(F)F)c(Cl)cn2)s1 [TOVORAFENIB] | > 30 µM (inactive) | > 30 µM (inactive) | > 30 µM (inactive) | > 30 µM (inactive) | > 30 µM (inactive) | > 30 µM (inactive) | > 30 µM (inactive) | > 30 µM (inactive) | > 30 µM (inactive) | > 30 µM (inactive) |
| CC(C)c1cc(CNc2nc(Nc3cc(C4CC4)[nH]n3)cc(N3CCN(C)CC3)n2)on1 [XL-228] | 0.133 µM (active) | > 30 µM (inactive) | > 30 µM (inactive) | > 30 µM (inactive) | > 30 µM (inactive) | 3.08 µM | > 30 µM (inactive) | 0.045 µM (active) | > 30 µM (inactive) | > 30 µM (inactive) |
